target: T1, human TRPM8 (Homo sapiens, UniProt Q7Z2W7); experiment: Menthol-induced Ca2+ influx in HEK293 cells stably expressing human TRPM8; type: cell-based; settings: 30 microM menthol-induced Ca2+ influx, read-out: IC50 against TRPM8
T1 construct: expressed in transfected cells; host or cells: HEK293
Experimental: Measurement of the Menthol-Induced Ca^2+ Influx in HEK293 Cells Stably Expressing Human TRPM8
A cell-based Ca^2+ influx assay using HEK293 cells stably expressing human TRPM8 is used to identify the activity of compounds.
HEK293 cells stably expressing human TRPM8 are grown in T175 flasks at 37° C. in a 5% CO2 humidified incubator to about 80% confluence. Media composition consists of Dulbecco's Modified Eagle Medium (high glucose), 10% fetal calf serum (FCS), 100 units/mLPenicillin, 100 microg/mL Streptomycin and 600 microg/mL Geneticine. At 24 hours prior to assay, cells are seeded in poly-D-lysine coated 384-well plates (BD FALCON) at a density of 30,000 cells per well in culture medium and grown overnight in 5% CO2 at 37° C. On the assay day, growth media is removed and cells are loaded with 0.5 microM Fluo4-AM (Molecular Probes) and 0.005% Pluronic F-127 dissolved in assay buffer (Hank's balanced salt solution (HBSS), 19.4 mM HEPES pH7.4, 2.5 mM Probenecid) for 1 hour at room temperature. After washing with assay buffer, the cells are preincubated with various concentrations of the compounds for 5 min. The changes in intracellular calcium concentration by addition of 30 microM menthol are monitored by the cell imaging technology by Hamamatsu Photonics Functional Drug Screening System (FDSS).
The IC50 values for compounds of the present invention are determined from 11-point dose-response studies. Curves are generated using the average of duplicate wells for each data point. Finally, the IC50 values are calculated with the best-fit dose curve determined by XLfit (ID Business Solutions Ltd.).

T1 sequence (Q7Z2W7 whole entry): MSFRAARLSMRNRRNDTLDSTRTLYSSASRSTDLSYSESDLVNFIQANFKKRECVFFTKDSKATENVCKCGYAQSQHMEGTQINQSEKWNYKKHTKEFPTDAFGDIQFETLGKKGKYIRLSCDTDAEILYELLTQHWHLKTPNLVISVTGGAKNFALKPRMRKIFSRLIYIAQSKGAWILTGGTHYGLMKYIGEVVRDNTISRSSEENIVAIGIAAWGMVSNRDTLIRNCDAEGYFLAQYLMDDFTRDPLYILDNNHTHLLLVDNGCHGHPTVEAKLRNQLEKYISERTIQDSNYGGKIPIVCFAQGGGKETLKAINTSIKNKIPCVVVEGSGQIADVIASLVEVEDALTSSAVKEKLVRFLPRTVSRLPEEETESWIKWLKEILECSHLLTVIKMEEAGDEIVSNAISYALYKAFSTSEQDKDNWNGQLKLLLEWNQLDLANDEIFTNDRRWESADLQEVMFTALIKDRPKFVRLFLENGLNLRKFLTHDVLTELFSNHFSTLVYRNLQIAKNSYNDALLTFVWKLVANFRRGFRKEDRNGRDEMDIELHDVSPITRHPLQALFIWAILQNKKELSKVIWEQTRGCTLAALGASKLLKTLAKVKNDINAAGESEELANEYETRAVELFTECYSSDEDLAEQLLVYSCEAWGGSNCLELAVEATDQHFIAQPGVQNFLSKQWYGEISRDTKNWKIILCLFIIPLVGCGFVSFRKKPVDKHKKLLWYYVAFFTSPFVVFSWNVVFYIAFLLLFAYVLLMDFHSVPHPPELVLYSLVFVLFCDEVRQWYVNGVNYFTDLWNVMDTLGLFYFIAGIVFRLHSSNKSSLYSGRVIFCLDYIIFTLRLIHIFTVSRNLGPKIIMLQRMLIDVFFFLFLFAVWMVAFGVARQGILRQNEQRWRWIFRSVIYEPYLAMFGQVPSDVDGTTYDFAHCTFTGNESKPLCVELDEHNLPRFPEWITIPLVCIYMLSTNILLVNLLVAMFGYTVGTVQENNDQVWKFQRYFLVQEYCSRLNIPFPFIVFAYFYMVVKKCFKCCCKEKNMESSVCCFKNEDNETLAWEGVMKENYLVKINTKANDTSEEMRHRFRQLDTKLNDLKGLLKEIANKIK

IC50 [nM] | SMILES
< 500 | Cc1ncccc1-c1c(C)nc(C(=O)CN2C(=O)NC3(CCC(F)(F)CC3)C2=O)n1C [Example 17-13]
< 100 | N#Cc1ccnnc1-c1ccc(C(=O)CN2C(=O)NC3(CCC(F)(F)CC3)C2=O)cc1 [Example 6-43]
< 100 | Cc1nccnc1-c1ccc(C(=O)CN2C(=O)NC3(CCCCC3)C2=O)cc1 [Example 7-14]
< 100 | Cc1ccncc1-c1ncc(C(=O)CN2C(=O)NC3(CCC(F)(F)CC3)C2=O)cc1Cl [Example 5-25]
< 100 | Cc1nc(C(=O)CN2C(=O)NC3(CCC(F)(F)CC3)C2=O)c(C)n1-c1cccc(F)c1 [Example 2-11]
< 100 | Cc1cc(C(=O)CN2C(=O)NC3(CCC(F)(F)CC3)C2=O)n(C)c1-c1cc(F)cc(F)c1 [Example 16-9]
< 10 | O=C(CN1C(=O)NC2(CCC(F)(F)CC2)C1=O)c1ccc(-n2cnc3ccccc32)cc1 [Example 5-7]
< 100 | O=C(CN1C(=O)NC2(CCC(F)(F)CC2)C1=O)c1ccc(-c2cccc3cnccc23)cc1 [Example 13-41]
< 500 | O=C(CN1C(=O)NC2(CCC(F)(F)CC2)C1=O)c1ccc(-c2cccnc2NCCO)cc1 [Example 6-46]
< 100 | Cc1cc(C(=O)CN2C(=O)NC3(CCC(F)(F)CC3)C2=O)sc1-c1cccnc1 [Example 14-7]
< 500 | O=C(CN1C(=O)NC2(CCC(F)(F)CC2)C1=O)c1ccc(-c2cccc3c2CC(O)C3)cc1 (stereo not shown) [Example 6-49]
< 100 | O=C(CN1C(=O)NC2(CCC(F)(F)CC2)C1=O)c1ccc(Oc2ncccn2)cc1 [Example 5-20]
< 100 | CCc1ccccc1-c1ccc(C(=O)CN2C(=O)NC3(CCC(F)(F)CC3)C2=O)cn1 [Example 9-20]
< 100 | O=C(CN1C(=O)NC2(CCC(F)(F)CC2)C1=O)c1ccc(-c2nccnc2OCCO)cc1 [Example 6-54, 8,8-difluoro-3-(2-(4-(3-(2-hydroxyethoxy)pyrazin-2-yl)phenyl)-2-oxoethyl)-1,3-diazaspiro[4.5]decane-2,4-dione]
< 10 | Cc1cnc(C)c(-c2ccc(C(=O)CN3C(=O)NC4(CCC(F)(F)CC4)C3=O)cc2)n1 [Example 6-7]
< 500 | N#Cc1cccc(-c2c(F)cc(C(=O)CN3C(=O)NC4(CCC(F)(F)CC4)C3=O)cc2F)c1 [Example 13-33]
< 10 | O=C(CN1C(=O)OC2(CCC(F)(F)CC2)C1=O)c1ccc(-c2nccc3ccncc23)cc1 [Example 7-22]
< 100 | O=C(CN1C(=O)NC2(CCC(F)(F)CC2)C1=O)c1ccc(-c2cccnc2)nc1 [Example 5-1]
< 100 | Cc1ccsc1-c1ccc(C(=O)CN2C(=O)NC3(CCC(F)(F)CC3)C2=O)cc1 [Example 6-29]
< 100 | O=C(CN1C(=O)NC2(CCCCC2)C1=O)c1ccc(-c2cccnc2)cc1 [Example 13-2]
< 100 | Cc1ncccc1-c1ccc(C(=O)CN2C(=O)NC3(CCC(F)(F)CC3)C2=O)nc1 [Example 10-1]
< 500 | O=C(CN1C(=O)NC2(CCC(F)(F)CC2)C1=O)c1ccc(-n2cnc3cncnc32)cc1 [Example 19-34]

IC50 [nM] | SMILES
< 500 | Cc1cc(C(=O)CN2C(=O)NC3(CCC(F)(F)CC3)C2=O)n(C)c1-c1cncc(C(N)=O)c1 [Example 16-33]
< 100 | COc1ncccc1-c1ccc(C(=O)CN2C(=O)NC3(CCC(F)(F)CC3)C2=O)cc1 [Example 13-45]
< 100 | O=C(CN1C(=O)NC2(CCC(F)(F)CC2)C1=O)c1ccc(-n2cnc3ccccc32)nc1 [Example 5-12]
< 100 | Cc1ccc2nc(CO)n(-c3ccc(C(=O)CN4C(=O)NC5(CCC(F)(F)CC5)C4=O)cc3)c2n1 [Example 28-5, 8,8-difluoro-3-(2-(4-(2-(hydroxymethyl)-5-methyl-3H-imidazo[4,5-b]pyridin-3-yl)phenyl)-2-oxoethyl)-1,3-diazaspiro[4,5]decane-2,4-dione]
< 100 | COc1ccccc1-c1sc(C(=O)CN2C(=O)NC3(CCC(F)(F)CC3)C2=O)cc1C [Example 14-12]
< 100 | O=C(CN1C(=O)NC2(CCCCC2)C1=O)c1ccc(-c2nccnc2CO)cc1 [Example 7-10]
< 100 | O=C(CN1C(=O)NC2(CCC(F)(F)CC2)C1=O)c1ccc(-c2cccc3cccnc23)nc1 [Example 9-13]
< 100 | O=C(CN1C(=O)NC2(CCC(F)(F)CC2)C1=O)c1ccc(-c2cccc3nccnc23)cc1 [Example 6-30]
< 500 | NC(=O)c1ccccc1-c1ccc(C(=O)CN2C(=O)NC3(CCC(F)(F)CC3)C2=O)cc1 [Example 6-99]
< 100 | COc1ccccc1-c1ccc(C(=O)CN2C(=O)NC3(CCCCC3)C2=O)cc1 [Example 13-3]
< 100 | O=C(CN1C(=O)NC2(CCC(F)(F)CC2)C1=O)c1ccc(Oc2cccc(Cl)c2)nc1 [Example 20-8]
< 100 | Cc1ccncc1-c1ccc(C(=O)CN2C(=O)NC3(CCC(F)(F)CC3)C2=O)n1C [Example 16-2]
< 500 | O=C(CN1C(=O)NC2(CCC(F)(F)CC2)C1=O)c1ccc(Oc2cncnc2)cc1 [Example 21-15]
< 100 | O=C(CN1C(=O)NC2(CCCCC2)C1=O)c1ccc(-c2ncccc2CO)cc1 [Example 7-7]
< 10 | Cc1nc2cccnc2n1-c1ccc(C(=O)CN2C(=O)NC3(CCC(F)(F)CC3)C2=O)cc1 [Example 5-10]
< 100 | O=C(CN1C(=O)NC2(CCC(F)(F)CC2)C1=O)c1ccc(-c2cnc3ccccn23)cc1 [Example 6-81]
< 100 | O=C(CN1C(=O)NC2(CCC(F)(F)CC2)C1=O)c1ccc(-c2cccc3[nH]ncc23)nc1 [Example 9-14]
< 100 | Cc1nc(C(=O)CN2C(=O)NC3(CCCCC3)C2=O)c(C)n1-c1cccc(Cl)c1 [Example 2-15]
< 100 | Cc1nccnc1-c1ccc(C(=O)CN2C(=O)NC3(CCC(F)(F)CC3)C2=O)cc1 [Example 6-11]
< 100 | Cc1ccccc1-c1sc(C(=O)CN2C(=O)NC3(CCC(F)(F)CC3)C2=O)cc1C [Example 14-11]
< 100 | O=C(CN1CC2(CCC(F)(F)CC2)OC1=O)c1ccc(-n2cnc3ccccc32)cc1 [Example 22-4]
< 500 | O=C(CN1C(=O)NC2(CCC(F)(F)CC2)C1=O)c1ccc(-n2c(C3CC3)nc3cccnc32)cc1 [Example 24-3]

IC50 [nM] | SMILES
< 100 | N#Cc1ccnnc1Oc1ccc(C(=O)CN2C(=O)NC3(CCC(F)(F)CC3)C2=O)cc1 [Example 21-12, 3-(4-(2-(8,8-difluoro-2,4-dioxo-1,3-diazaspiro[4.5]decan-3-yl)acetyl)phenoxy)pyridazine-4-carbonitrile]
< 100 | Cc1nc(C(=O)CN2C(=O)NC3(CCC(F)(F)CC3)C2=O)sc1-c1ccccc1C#N [Example 18-6]
< 100 | Cc1ccccc1-c1ccc(C(=O)CN2C(=O)NC3(CCCCC3)C2=O)cc1 [Example 13-4]
< 100 | O=C(CN1C(=O)NC2(CCC(F)(F)CC2)C1=O)c1ccc(-c2cccn3ccnc23)cc1 [Example 6-38]
< 100 | Cn1c(-c2cccc(C#N)c2)cnc1C(=O)CN1C(=O)NC2(CCC(F)(F)CC2)C1=O [Example 17-3]
< 500 | Cc1cccc(-n2c(C)nc(C(=O)CN3C(=O)CC4(CCC(F)(F)CC4)C3=O)c2C)c1 [Example 2-8]
< 500 | Cn1c(C(=O)CN2C(=O)NC3(CCC(F)(F)CC3)C2=O)cnc1-c1ccccc1 [Example 4-11]
< 10 | Cc1ccncc1-c1sc(C(=O)CN2C(=O)NC3(CCC(F)(F)CC3)C2=O)nc1C [Example 18-2]
< 100 | O=C(CN1C(=O)NC2(CCC(F)(F)CC2)C1=O)c1ccc(-c2cnccc2CO)cc1 [Example 6-10]
< 100 | Cc1ccnnc1-c1ccc(C(=O)CN2C(=O)NC3(CCC(F)(F)CC3)C2=O)cc1 [Example 6-14]
< 100 | O=C(CN1C(=O)NC2(CCC(F)(F)CC2)C1=O)c1ccc(N2C(=O)COc3ccccc32)nc1 [Example 19-13]
< 500 | Cc1cc(C(=O)CN2C(=O)NC3(CCC(F)(F)CC3)C2=O)sc1-c1cccc2cccnc12 [Example 14-20]
< 500 | Cc1ncccc1-c1ccc(C(=O)CN2CC3(CCC(F)(F)CC3)OC2=O)cc1 [Example 13-56]
< 100 | Cc1cc(C(=O)CN2C(=O)NC3(CCC(F)(F)CC3)C2=O)sc1-c1cnccc1CO [Example 14-6]
< 100 | O=C(CN1C(=O)NC2(CCCCC2)C1=O)c1ccc(-c2cnccc2CO)cc1 [Example 7-9]
< 100 | CN(c1cccnc1)c1ccc(C(=O)CN2C(=O)NC3(CCCCC3)C2=O)cn1 [Example 19-4]
< 100 | O=C(CN1C(=O)NC2(CCC(F)(F)CC2)C1=O)c1ccc(-c2ncc3ccccn23)cc1 [Example 6-63]
< 100 | NC(=O)c1cccc(-c2ccc(C(=O)CN3C(=O)NC4(CCC(F)(F)CC4)C3=O)cc2Cl)c1 [Example 13-28]
< 100 | O=C(CN1C(=O)NC2(CCC(F)(F)CC2)C1=O)c1ccc(-c2nccc3[nH]ccc23)cc1 [Example 6-24]
< 100 | Cc1cncc(-c2ccc(C(=O)CN3C(=O)NC4(CCC(F)(F)CC4)C3=O)cc2)n1 [Example 6-28]
